According to US5948630A, “Method and composition for reducing the effects of endogenous alkaline phosphatase” (Dade Behring Inc., priority 1996, dated 1999):

Experiments:
Human Liver ALP = target: T1, Human Liver ALP (Homo sapiens, UniProt P05186); assay: Ki of inhibitors for human liver ALP (Table 1); format: biochemical; settings: Enzyme: Human Liver
T1 sequence (P05186 18-502 limits assumed): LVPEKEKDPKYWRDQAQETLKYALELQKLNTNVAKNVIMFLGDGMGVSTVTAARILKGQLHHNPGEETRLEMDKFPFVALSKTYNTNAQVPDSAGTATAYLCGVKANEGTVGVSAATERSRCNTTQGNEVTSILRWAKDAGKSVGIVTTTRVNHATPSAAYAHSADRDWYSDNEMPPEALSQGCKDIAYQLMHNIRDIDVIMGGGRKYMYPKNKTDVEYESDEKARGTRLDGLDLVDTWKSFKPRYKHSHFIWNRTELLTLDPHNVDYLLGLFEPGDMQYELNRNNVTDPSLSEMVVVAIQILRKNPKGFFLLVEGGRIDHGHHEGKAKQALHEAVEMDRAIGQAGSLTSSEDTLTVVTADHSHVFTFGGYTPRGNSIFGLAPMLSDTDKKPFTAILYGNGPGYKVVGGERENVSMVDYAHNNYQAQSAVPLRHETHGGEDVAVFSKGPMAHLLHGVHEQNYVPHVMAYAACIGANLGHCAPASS
Excerpt: Another approach to reduce the effects of the human ALPs is to use inhibitors of ALPs in the substrate solution.

[1] = target: T2, ALPs in Sarcoma 180/TG ascites cells (Mus musculus, UniProt P09242); settings: J. Med. Chem. 1977, 20: 563-566; cited from earlier work
T2 construct: host or cells: Sarcoma 180/TG ascites cells
T2 sequence (P09242 18-502 limits assumed): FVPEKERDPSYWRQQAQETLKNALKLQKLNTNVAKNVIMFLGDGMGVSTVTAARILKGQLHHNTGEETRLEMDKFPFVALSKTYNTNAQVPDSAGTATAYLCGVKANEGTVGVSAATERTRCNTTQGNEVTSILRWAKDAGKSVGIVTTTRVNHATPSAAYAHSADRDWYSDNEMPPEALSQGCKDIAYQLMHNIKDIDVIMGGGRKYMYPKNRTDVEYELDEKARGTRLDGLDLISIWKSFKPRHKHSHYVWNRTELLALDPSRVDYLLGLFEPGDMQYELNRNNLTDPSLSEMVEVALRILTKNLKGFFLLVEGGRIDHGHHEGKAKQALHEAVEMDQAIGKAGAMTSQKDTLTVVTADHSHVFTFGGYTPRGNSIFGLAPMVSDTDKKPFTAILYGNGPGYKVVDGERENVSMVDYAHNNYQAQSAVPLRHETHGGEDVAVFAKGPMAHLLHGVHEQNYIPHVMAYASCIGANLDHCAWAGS

[2] = test system: endogenous ALP (high molecular weight and/or elevated normal ALP) in patient serum samples; assay: Background signal from endogenous ALP of patient serum samples on Stratus Fluorometric Analyzer, using each substrate/wash composition; parameters: species or system human; settings: patient serum Samples 1-3 (FIGS. 1-3); ALP conjugate, 4-MUP substrate; rate in mv/min
Experimental: Three carcinoembryonic antigen (CEA) positive patient serum samples (Samples 1, 2, and 3) were identified as having high molecular weight ALP and/or elevated levels of normal ALP. These samples were tested using the compositions of this invention. The patient samples were evaluated on an automated immunoassay analyzer (the Stratus^R Fluorometric Analyzer from Baxter Diagnostics Inc.) which utilizes an ALP conjugate and a 4-MUP substrate. This automated analyzer combines the wash step with the substrate addition step. See, U.S. Pat. No. 4,517,288. The commercially available substrate composition (XWS) has the dual function of washing the solid phase and initiating the ALP reaction. […]
(§1) The samples were evaluated on the analyzer using each composition as the substrate/wash. […]
Five patient samples, Samples 1, 2, and 3 (as described in Example 1), Sample 4 (which originated from a patient who tested positive for colon cancer) and Sample 5 (which originated from a patient who tested positive for breast cancer) were identified as having high molecular weight ALP and/or elevated levels of normal ALP. These samples were evaluated using the compositions of this invention. The patient samples were evaluated on the automated immunoassay analyzer described in Example 1. […]
as §1

SMILES | Ki (Human Liver ALP) [µM] | Ki [1] [µM] | background signal generated from endogenous ALP / false positive reading [2]
Brc1ccc([C@H]2CN3CCSC3=N2)cc1 [Bromolevamisole] | 98.5 | – | –
C1=CN2CC(c3ccc4ccccc4c3)N=C2S1 (stereo not shown) [Naphthyl, 5,6-Dihydro-6-(2-naphthyl)imidazo-[2,1-b]thiazole] | 30.3 | ~1 | substantially lowers the background signal
